Literature values, collected in paper PMC2074382 (British Journal of Cancer, 1996).

Assays:
[1] = design: method as in Rowinsky et al., 1992; Verweij et al., 1993; conditions: daily x 5 schedule; ref Rowinsky et al., 1992; Verweij et al., 1993; cited from earlier work
[2] = design: method as in PMID 5081595, PMID 8137244; conditions: in vitro and in vivo pharmacology; cited from earlier work
[3] = clinical; cited from earlier work

Compound | dose-limiting toxicity [1] | potency relative to GI147211 (fold less potent) [2] [fold] | induced toxicity [3]
CC[C@@]1(O)C(=O)OCc2c1cc1n(c2=O)Cc2cc3c(CN(C)C)c(O)ccc3nc2-1 [topotecan] | myelosuppression | 2.2 | 
CCc1c2c(nc3ccc(OC(=O)N4CCC(N5CCCCC5)CC4)cc13)-c1cc3c(c(=O)n1C2)COC(=O)[C@]3(O)CC [Irinotecan] |  |  | neutropenia in addition to diarrhoea
